Laboratory results as given in ChEMBL document CHEMBL5149996, “Structure-Based Optimization and Discovery of M3258, a Specific Inhibitor of the Immunoproteasome Subunit LMP7 (β5i)” (J Med Chem, 2021).
pIC50: −log10 of the molar value.

Tests used:
[1] = target: T1, Proteasome subunit beta type-8 (Homo sapiens, UniProt P28062); test: Inhibition of human 20S immunoproteasome beta-5i subunit using Suc-LLVY-AMC as substrate preincubated for 2 hrs followed by substrate addition and measured after 1 hr by fluorescence intensity assay
T1 sequence (P28062 whole entry): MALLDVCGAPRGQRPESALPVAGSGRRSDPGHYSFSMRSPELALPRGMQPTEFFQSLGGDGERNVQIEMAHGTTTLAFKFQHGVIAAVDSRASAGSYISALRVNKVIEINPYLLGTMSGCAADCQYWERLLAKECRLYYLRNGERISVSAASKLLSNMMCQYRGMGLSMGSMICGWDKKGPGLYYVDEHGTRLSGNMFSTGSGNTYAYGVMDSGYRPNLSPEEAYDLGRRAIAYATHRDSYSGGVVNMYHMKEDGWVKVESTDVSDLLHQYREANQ

[2] = target: T2, Proteasome Macropain subunit MB1 (Homo sapiens, UniProt P28074); test: Inhibition of human 20S proteasome beta5 subunit using Suc-LLVY-AMC as substrate preincubated for 2 hrs followed by substrate addition and measured after 1 hr by fluorescence intensity assay
T2 sequence (P28074 whole entry): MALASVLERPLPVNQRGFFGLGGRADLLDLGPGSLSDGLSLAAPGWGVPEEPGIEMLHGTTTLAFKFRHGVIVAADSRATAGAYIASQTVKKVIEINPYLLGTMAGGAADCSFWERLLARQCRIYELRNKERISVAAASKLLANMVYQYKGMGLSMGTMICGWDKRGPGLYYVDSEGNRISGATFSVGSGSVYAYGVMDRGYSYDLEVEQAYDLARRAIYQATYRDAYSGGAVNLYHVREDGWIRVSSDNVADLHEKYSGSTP

[3] = species on record: Homo sapiens; test: Selectivity ratio of IC50 for inhibition of human 20S proteasome beta5 subunit to IC50 for inhibition of human 20S immunoproteasome beta-5i subunit
[4] = target: T2, Proteasome Macropain subunit MB1; test: Inhibition of 20S proteasome beta5 subunit in human A549 cells using Suc-LLVY-luciferin substrate preincubated for 2 hrs followed by substrate addition and measured after 30 mins by luminometric analysis; assay type: cell-based
[5] = target: T1, Proteasome subunit beta type-8; test: Inhibition of 20S immunoproteasome beta-5i subunit in human PBMC using Ac-ANW-luciferin substrate preincubated for 2 hrs followed by substrate addition and measured after 30 mins by luminometric analysis; assay type: cell-based
[6] = species on record: Homo sapiens; test: Selectivity ratio of IC50 for inhibition of 20S proteasome beta5 subunit in human A549 cells to IC50 for inhibition of 20S immunoproteasome beta-5i subunit in human PBMC; assay type: cell-based
[7] = Lipophilicity, log P of the compound; assay type: physicochemical; conditions: octanol/water
[8] = Intrinsic clearance in human liver microsomes measured per mg protein; assay type: ADME, Microsome
[9] = Intrinsic clearance in mouse liver microsomes measured per mg protein; assay type: ADME, Microsome; conditions: read-out: CLH
[10] = Clearance in mouse hepatocytes measured per million of cells; assay type: ADME, cell-based, Hepatocyte; conditions: read-out: CLH
[11] = Clearance in human hepatocytes measured per million of cells; assay type: ADME, cell-based, Hepatocyte; conditions: read-out: CLH
[12] = Distribution coefficient, log D of the compound; assay type: physicochemical; conditions: octanol/water
[13] = Kinetic solubility of the compound; assay type: physicochemical; conditions: read-out: Kinetic_solubility
[14] = Clearance in iv dosed mouse; assay type: ADME, organism-based; conditions: in vivo
[15] = Volume of distribution at steady state in iv dosed mouse; assay type: ADME, organism-based; conditions: in vivo
[16] = Half life in iv dosed mouse; assay type: ADME, organism-based; conditions: in vivo
[17] = Oral bioavailability in mouse at 0.5 mg/kg; assay type: ADME, organism-based; conditions: in vivo
[18] = test system: HepG2; test: Cytotoxicity against human HepG2 cells assessed as depletion of ATP content up to 500 uM incubated for 48 to 72 hrs by CellTiter-Glo luminescent assay; assay type: toxicity, cell-based; conditions: hepg2, 500 µM, time 48-72 hrs
[19] = test system: Hepatocyte; test: Cytotoxicity against Wistar Han rat hepatocytes assessed as depletion of ATP content up to 500 uM incubated for 48 to 72 hrs by CellTiter-Glo luminescent assay; assay type: toxicity, cell-based; conditions: time 48-72 hrs
[20] = test system: Hepatocyte; test: Cytotoxicity against human primary hepatocytes assessed as depletion of ATP content up to 500 uM incubated for 48 to 72 hrs by CellTiter-Glo luminescent assay; assay type: toxicity, cell-based; conditions: time 48-72 hrs
[21] = target: T3, Proteasome subunit beta type-9 (Homo sapiens, UniProt P28065); test: Inhibition of human 20S immunoproteasome beta-1i subunit using (Ac-PAL)2R110 as substrate preincubated for 2 hrs followed by substrate addition and measured after 1 hr by fluorescence intensity assay
T3 sequence (P28065 whole entry): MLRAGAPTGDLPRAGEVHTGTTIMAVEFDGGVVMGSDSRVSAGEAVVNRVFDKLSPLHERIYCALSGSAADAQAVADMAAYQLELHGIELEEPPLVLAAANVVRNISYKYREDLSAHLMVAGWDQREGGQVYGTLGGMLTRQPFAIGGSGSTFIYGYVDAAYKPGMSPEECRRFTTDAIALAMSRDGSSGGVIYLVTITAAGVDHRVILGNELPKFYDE

[22] = target: T4, Proteasome subunit beta type-10 (Homo sapiens, UniProt P40306); test: Inhibition of human 20S immunoproteasome beta-2i subunit using Ac-RLR-AMC as substrate preincubated for 2 hrs followed by substrate addition and measured after 1 hr by fluorescence intensity assay
T4 sequence (P40306 whole entry): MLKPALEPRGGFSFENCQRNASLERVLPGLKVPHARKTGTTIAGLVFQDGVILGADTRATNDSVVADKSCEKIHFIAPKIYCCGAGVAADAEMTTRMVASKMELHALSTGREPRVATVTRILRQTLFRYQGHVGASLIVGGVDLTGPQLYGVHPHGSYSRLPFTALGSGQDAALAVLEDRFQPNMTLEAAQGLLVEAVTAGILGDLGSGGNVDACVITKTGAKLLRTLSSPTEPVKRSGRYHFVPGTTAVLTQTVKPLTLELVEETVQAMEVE

[23] = target: T5, Proteasome subunit beta type-6 (Homo sapiens, UniProt P28072); test: Inhibition of human 20S […] beta1 subunit using Ac-nLPnLD-AMC as substrate preincubated for 2 hrs followed by substrate addition and measured after 1 hr by fluorescence intensity assay
T5 sequence (P28072 whole entry): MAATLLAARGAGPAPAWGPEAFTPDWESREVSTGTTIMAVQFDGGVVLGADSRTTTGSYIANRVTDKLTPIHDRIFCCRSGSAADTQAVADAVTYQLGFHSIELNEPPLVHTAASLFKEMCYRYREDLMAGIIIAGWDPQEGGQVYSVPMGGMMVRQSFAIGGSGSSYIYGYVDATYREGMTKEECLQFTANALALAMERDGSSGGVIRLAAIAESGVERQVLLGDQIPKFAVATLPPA

[24] = target: T6, Proteasome subunit beta type-7 (Homo sapiens, UniProt Q99436); test: Inhibition of human 20S proteasome beta2 subunit using Ac-RLR-AMC as substrate preincubated for 2 hrs followed by substrate addition and measured after 1 hr by fluorescence intensity assay
T6 sequence (Q99436 whole entry): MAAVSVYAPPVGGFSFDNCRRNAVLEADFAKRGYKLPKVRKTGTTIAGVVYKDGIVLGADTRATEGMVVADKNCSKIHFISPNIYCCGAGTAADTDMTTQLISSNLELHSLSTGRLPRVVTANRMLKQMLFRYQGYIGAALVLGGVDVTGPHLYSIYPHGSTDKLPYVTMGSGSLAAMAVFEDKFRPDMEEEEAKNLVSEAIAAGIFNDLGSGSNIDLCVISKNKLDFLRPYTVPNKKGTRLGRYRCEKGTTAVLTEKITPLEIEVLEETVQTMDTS

SMILES	pIC50 [1]	pIC50 [2]	Ratio IC50 [3]	pIC50 [4]	pIC50 [5]	Ratio IC50 [6]	logP [7]	microsomal CLint [9] [µL/min/mg]	other results
O=C(N[C@@H](Cc1coc2ccccc12)B(O)O)[C@H]1C[C@@H]2CC[C@H]1O2	7.82	5.19	444	5.61	7.71	124	2.25	16	CLH [8]: < 10 µL/min/mg; hepatocyte CLint [10]: 15.9 µL/min/1e6 cells; hepatocyte CLint [11]: 6.6 µL/min/1e6 cells
O=C(Cc1ccccc1)N[C@@H](Cc1coc2ccccc12)B(O)O	8.68	6.05	419	6.24	7.85	41	3.5		logD [12]: 1; solubility kinetic [13]: > 200 µM; CL ([14]; iv): 3 mL/min/kg; Vdss ([15]; iv): 2.25 L/kg; t1/2 ([16]; iv): 22.2 min; bioavailability [17]: 37%
CC(C)C[C@H](NC(=O)[C@H](Cc1ccccc1)NC(=O)c1cnccn1)B(O)O [BORTEZOMIB]									Activity [18]: Toxic; Activity [19]: Toxic; Activity [20]: Toxic
N#Cc1ccccc1CC(=O)N[C@@H](C[C@@H]1COc2ccccc21)B(O)O	8.51	5.62	758	5.60	7.70	126	1.75	37	logD [12]: 1.3; solubility kinetic [13]: > 200 µM; CLH [8]: < 10 µL/min/mg; clearance [14]: 32.8 mL/min/kg; Vd ([15]; read-out: Vdss): 1.88 L/kg; half-life [16]: 42.6 min; bioavailability [17]: 13%
CC(C)C[C@H](NC(=O)CNC(=O)c1cc(Cl)ccc1Cl)B(O)O	8.54								pIC50 [21]: 8.57; pIC50 [22]: 5.31; pIC50 [23]: 7.19; pIC50 [24]: < 4.52
O=C(N[C@@H](Cc1coc2ccccc12)B(O)O)[C@H]1CCCO1	8.23	6.03	158	6.09	7.40	20	2.1	48	hepatocyte CLint [10]: 90.7 µL/min/1e6 cells
CCc1cccc(C[C@H](NC(=O)[C@H](Cc2ccccc2)NC(=O)c2cnccn2)B(O)O)c1	8.77	7.39	24						pIC50 [21]: 7.96; pIC50 [22]: 5.40; pIC50 [23]: 5.07; pIC50 [24]: < 4.52
O=C(Cc1ncccn1)N[C@@H](Cc1coc2ccccc12)B(O)O	8.64	6.64	101	6.69	7.81	13			
Cc1ccc(C[C@H](NC(=O)Cc2ccccc2)B(O)O)c(C)c1	6.89	4.59	194	< 4.52	6.05	> 33			
O=C(N[C@@H](Cc1coc2ccccc12)B(O)O)[C@H]1CCOC1	7.55	5.30	175	5.52	7.26	54	2.1	16	
Cc1cccc2c1OC[C@H]2C[C@H](NC(=O)Cc1ccccc1C#N)B(O)O	8.36	4.85	3150	< 4.52	7.22	> 496			
O=C(N[C@@H](Cc1coc2ccccc12)B(O)O)[C@@H]1CCOC1	8.00	5.37	410	5.77	7.86	123	1.85	19	hepatocyte CLint [10]: 26.7 µL/min/1e6 cells
O=C(N[C@@H](Cc1coc2ccccc12)B(O)O)[C@@H]1CCCO1	6.72	4.62	128	4.82	6.40	38	1.9	34	hepatocyte CLint [10]: 99.7 µL/min/1e6 cells
O=C(Cc1ccccc1)N[C@@H](Cc1ccc(Cl)cc1)B(O)O	7.42	5.25	148	5.06	6.01	8.9			
COCCC(=O)N[C@@H](Cc1coc2ccccc12)B(O)O	8.72	6.40	205	6.62	7.97	23			
